Measurements reported in paper PMC7704979, “Effect of the versatile bifunctional chelator AAZTA^5 on the radiometal labelling properties and the in vitro performance of a gastrin releasing peptide receptor antagonist” (EJNMMI Radiopharmacy and Chemistry, 2020).

Experiments:
GRPr = molecular target: T1, GRPr (Homo sapiens, UniProt P30550); experiment: Saturation binding studies on intact PC3 cells; settings: for Bmax (concentration of the radiotracer required to saturate the receptors): intact PC3 cells, 4 °C, 120 min, normalized for 1 × 10^6 cells per well
T1 construct: For receptor saturation analysis, PC3 cells were seeded at a density of 0.8–1 million cells per well; endogenous in cells; host or cells: PC3 (human prostate adenocarcinoma cell line), intact cells
T1 sequence (P30550 whole entry): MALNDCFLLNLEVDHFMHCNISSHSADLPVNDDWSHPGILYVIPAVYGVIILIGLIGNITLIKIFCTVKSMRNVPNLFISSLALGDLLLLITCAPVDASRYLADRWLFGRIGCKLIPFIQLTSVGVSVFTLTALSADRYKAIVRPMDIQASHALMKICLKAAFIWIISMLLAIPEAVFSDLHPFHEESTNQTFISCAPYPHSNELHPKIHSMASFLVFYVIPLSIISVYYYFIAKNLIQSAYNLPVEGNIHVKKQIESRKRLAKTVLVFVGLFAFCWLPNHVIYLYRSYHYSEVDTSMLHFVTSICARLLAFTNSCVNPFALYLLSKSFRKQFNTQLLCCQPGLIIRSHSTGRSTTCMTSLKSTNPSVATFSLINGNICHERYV
Procedure: For receptor saturation analysis, PC3 cells were seeded at a density of 0.8–1 million cells per well in 6-well plates and incubated overnight with medium (DMEM: F12 (1:1) containing 1% FBS, 100 U/mL penicillin and 100 μg/mL streptomycin). The next day, the medium was removed, the cells washed and incubated for 1 h at 37 °C with fresh medium. […] After the addition of the radioligands, the cells were incubated for 120 min at 4 °C. Non-specific binding was determined in the presence of Tyr^4-Bombesin at a final concentration of 1 μM. Then the cells were washed twice with ice-cold PBS, followed by solubilization with 1 N NaOH and the cell-associated radioactivity was measured using a gamma-counter. Specific binding was plotted against the total molar concentration of the added radiotracer. The Kd values and the concentration of the radiotracer required to saturate the receptors (Bmax) were determined by nonlinear regression using GraphPad (Prism 8 Graph Pad Software, San Diego, CA). For all the cell studies the values are normalized for 1 × 10^6 cells per well and all data are from two independent experiments with triplicates in each experiment.

PC3 cells [1] = experiment: Internalization studies in PC3 cells; assay type: cell-based, human; settings: 37 °C; for specifically internalized activity / total cell associated uptake: 6 h; for total cell associated uptake: % of applied radioactivity
Procedure: For internalization experiments, PC3 cells were seeded into 6-well plates and treated as described above. […] To determine nonspecific membrane binding and internalization, excess of Tyr^4-Bombesin (final concentration 1 μΜ) was added to selected wells. At each time point, the internalization was stopped by removing the medium and washing the cells twice with ice-cold PBS. To remove the receptor-bound radioligand, an acid wash was carried out twice with a 0.1 M glycine buffer pH 2.8 for 5 min on ice. Finally, cells were solubilized with 1 N NaOH. The radioactivity of the culture medium, the receptor-bound, and the internalized fractions were measured in a γ-counter.

PC3 cells [2] = experiment: In vitro therapy study, trypan blue exclusion viability of PC3 cells; assay type: cell-based, human; settings: monotherapy (rapamycin 10 nM or ^177Lu-labelled LF1 1.85 MBq), 72 h
Procedure: For the in vitro therapy studies, PC3 cells were seeded at a density of 50,000–100,000 cells (depending on the investigating time point: 100000, 75,000 and 50,000 cells for 24, 48, 72 h respectively) in 12-well plates and incubated overnight with cultivation medium at 37 °C and 5% CO2. The next day, the medium was removed, the cells washed, and culture medium containing either rapamycin (10 nM, dissolved in dimethyl sulfoxide (DMSO)) or DMSO (control, the final concentration of DMSO in the culture medium was 0.5%) was added. The plates were incubated at 37 °C and 5% CO2 for a period of 6 h. Afterwards, the medium containing rapamycin or DMSO was removed and fresh medium was added in each well. […] The viability of the cells was accessed by the trypan blue exclusion assay after incubation at 37 °C and 5% CO2 for 24, 48 and 72 h. The experiment was performed twice in triplicate.

CC(C)C[C@H](NC(=O)CC(O)[C@H](CC(C)C)NC(=O)[C@H](Cc1c[nH]cn1)NC(=O)CNC(=O)[C@@H](NC(=O)[C@H](C)NC(=O)[C@H](Cc1c[nH]c2ccccc12)NC(=O)[C@H](CCC(N)=O)NC(=O)[C@@H](Cc1ccccc1)NC(=O)CN1CCC(NC(=O)CCCCC2(N(CC(=O)O)CC(=O)O)CN(CC(=O)O)CCN(CC(=O)O)C2)CC1)C(C)C)C(N)=O (some centres unmarked) [^68Ga-labelled LF1, metal not drawn] was tested, and the “Bmax (concentration of the radiotracer required to saturate the receptors)” value (shortened to “Bmax”) (GRPr; listed as 68/natGa-LF1) was 0.4 ± 0.02 nM, the “factor of lower affinity compared to ^111/natIn-LF1” value (GRPr; ratio of Kd values, PC3 cells) was about 3 and the internalized activity (PC3 cells [1]; 4 h) was 2.8 ± 0.5%.

In the case of CC(C)C[C@H](NC(=O)CC(O)[C@H](CC(C)C)NC(=O)[C@H](Cc1c[nH]cn1)NC(=O)CNC(=O)[C@@H](NC(=O)[C@H](C)NC(=O)[C@H](Cc1c[nH]c2ccccc12)NC(=O)[C@H](CCC(N)=O)NC(=O)[C@@H](Cc1ccccc1)NC(=O)CN1CCC(NC(=O)CCCCC2(N(CC(=O)O)CC(=O)O)CN(CC(=O)O)CCN(CC(=O)O)C2)CC1)C(C)C)C(N)=O (some centres unmarked) [^111In-labelled LF1, metal not drawn], the “Bmax” value (GRPr; listed as 111/natIn-LF1) was 0.6 ± 0.06 nM, the specifically internalized activity (PC3 cells [1]) was 9.2 ± 0.5% and the “total cell associated uptake” value (PC3 cells [1]) was 38.3 ± 2.5%.

In the case of CC(C)C[C@H](NC(=O)CC(O)[C@H](CC(C)C)NC(=O)[C@H](Cc1c[nH]cn1)NC(=O)CNC(=O)[C@@H](NC(=O)[C@H](C)NC(=O)[C@H](Cc1c[nH]c2ccccc12)NC(=O)[C@H](CCC(N)=O)NC(=O)[C@@H](Cc1ccccc1)NC(=O)CN1CCC(NC(=O)CN2CCN(CC(=O)O)CCN(CC(=O)O)CCN(CC(=O)O)CC2)CC1)C(C)C)C(N)=O (some centres unmarked) [^177/natLu-RM2, metal not drawn, reference compound], the “Bmax” value (GRPr) was 0.8 ± 0.03 nM.

In the case of CC(C)C[C@H](NC(=O)CC(O)[C@H](CC(C)C)NC(=O)[C@H](Cc1c[nH]cn1)NC(=O)CNC(=O)[C@@H](NC(=O)[C@H](C)NC(=O)[C@H](Cc1c[nH]c2ccccc12)NC(=O)[C@H](CCC(N)=O)NC(=O)[C@@H](Cc1ccccc1)NC(=O)CN1CCC(NC(=O)CCCCC2(N(CC(=O)O)CC(=O)O)CN(CC(=O)O)CCN(CC(=O)O)C2)CC1)C(C)C)C(N)=O (some centres unmarked) [^177Lu-labelled LF1, metal not drawn], the “Bmax” value (GRPr; listed as 177/natLu-LF1) was 0.8 ± 0.05 nM, the specifically internalized activity (PC3 cells [1]) was 8.9 ± 0.8% and the “total cell associated uptake” value (PC3 cells [1]) was 34.5 ± 2.3%.

For CO[C@H]1C[C@@H]2CC[C@@H](C)[C@@](O)(O2)C(=O)C(=O)N2CCCC[C@H]2C(=O)O[C@H]([C@H](C)C[C@@H]2CC[C@@H](O)[C@H](OC)C2)CC(=O)[C@H](C)/C=C(\C)[C@@H](O)[C@@H](OC)C(=O)[C@H](C)C[C@H](C)/C=C/C=C/C=C/1C [rapamycin], the cell viability (PC3 cells [2]) was “approx. 50%”.
